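Grown in 96-well plates, cells were treated for 48 hours with each compound at five concentrations. Insufficient inhibition: endpoint recorded as highest concentration tested. GI50 is the concentration that inhibits growth by half.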 Calls of active or inactive are those of the source. No stated cut-off is given here; in the data, active = GI50 up to about 1.1 µM and inactive = higher.
Key:
Assay in all cases: growth of human tumour cells (NCI), 48 h
SF-295 = tested on: SF-295
NCI-H226 = tested on: NCI-H226
MOLT-4 = tested on: MOLT-4
HOP-92 = tested on: HOP-92
CAKI-1 = tested on: CAKI-1
DLD-1 = tested on: DLD-1
OVCAR-4 = tested on: OVCAR-4
SK-MEL-2 = tested on: SK-MEL-2
DMS-273 = tested on: DMS-273
EKVX = tested on: EKVX
DMS-114 = tested on: DMS-114
SNB-19 = tested on: SNB-19
K562 = tested on: K562
HCT-15 = tested on: HCT-15
SNB-75 = tested on: SNB-75
HOP-62 = tested on: HOP-62
HCT-116 = tested on: HCT-116
HOP-18 = tested on: HOP-18
BT-549 = tested on: BT-549
Hs-578T = tested on: Hs-578T

| SMILES | GI50 (SF-295) | GI50 (NCI-H226) | GI50 (MOLT-4) | GI50 (HOP-92) | GI50 (CAKI-1) | GI50 (DLD-1) | GI50 (OVCAR-4) | GI50 (SK-MEL-2) | GI50 (DMS-273) | GI50 (EKVX) | GI50 (DMS-114) | GI50 (SNB-19) | GI50 (K562) | GI50 (HCT-15) | GI50 (SNB-75) | GI50 (HOP-62) | GI50 (HCT-116) | GI50 (HOP-18) | GI50 (BT-549) | GI50 (Hs-578T) |
| --- | --- | --- | --- | --- | --- | --- | --- | --- | --- | --- | --- | --- | --- | --- | --- | --- | --- | --- | --- | --- |
| CC1CC(c2cccc3c2OCO3)=Nc2ccccc2S1 (stereo not given) | > 100 µM (inactive) | > 100 µM (inactive) | > 100 µM (inactive) | > 100 µM (inactive) | > 100 µM (inactive) | > 100 µM (inactive) | > 100 µM (inactive) | > 100 µM (inactive) | > 100 µM (inactive) | > 100 µM (inactive) | 65.6 µM (inactive) | > 100 µM (inactive) | > 100 µM (inactive) | > 100 µM | > 100 µM (inactive) | – | – | – | – | – |
| CN(C)CC/C(=N\Nc1ccc(Cl)cc1)c1ccccc1 | 0.374 µM (active) | – | 0.403 µM (active) | – | – | 0.409 µM (active) | 1.77 µM (inactive) | 1.86 µM (inactive) | 0.366 µM (active) | 1.36 µM (inactive) | 0.933 µM (active) | 2.43 µM (inactive) | 0.327 µM (active) | 0.327 µM | 2.15 µM (inactive) | 1.68 µM (inactive) | 1.18 µM (inactive) | 2.13 µM (inactive) | – | – |
| CC(=O)OCC1OC(n2cc(F)c(=O)[nH]c2=O)C(NC(=O)N(CCCl)N=O)C(OC(C)=O)C1OC(C)=O (stereo not given) | 43.1 µM (inactive) | – | 87.1 µM (inactive) | > 100 µM (inactive) | > 100 µM (inactive) | > 100 µM (inactive) | > 100 µM (inactive) | – | > 100 µM (inactive) | – | 81.3 µM (inactive) | > 100 µM (inactive) | > 100 µM (inactive) | – | 16.6 µM (inactive) | > 100 µM (inactive) | > 100 µM (inactive) | > 100 µM (inactive) | – | – |
| Cc1nc(Nc2ccccc2)sc1C(=O)NNc1ccc([N+](=O)[O-])cc1[N+](=O)[O-] | 27.5 µM (inactive) | 85.5 µM (inactive) | 24.7 µM (inactive) | – | 31.5 µM (inactive) | 25.5 µM (inactive) | 29.6 µM (inactive) | 38.5 µM (inactive) | 25.7 µM (inactive) | 18.9 µM (inactive) | 23.3 µM (inactive) | 47.1 µM (inactive) | 12 µM (inactive) | 26.2 µM | 22.7 µM (inactive) | 41.9 µM (inactive) | 42.4 µM (inactive) | 21.5 µM (inactive) | – | – |
| COC(=O)C(C(=O)C(=O)Nc1ccc(C)cc1)c1nc2ccc([N+](=O)[O-])cc2nc1O (stereo not given) | > 100 µM (inactive) | > 100 µM (inactive) | 92.9 µM (inactive) | – | > 100 µM (inactive) | > 100 µM (inactive) | > 100 µM (inactive) | > 100 µM (inactive) | > 100 µM (inactive) | > 100 µM (inactive) | 21.3 µM (inactive) | > 100 µM (inactive) | 30.1 µM (inactive) | > 100 µM | > 100 µM (inactive) | > 100 µM (inactive) | > 100 µM (inactive) | > 100 µM (inactive) | – | – |
| O=C(N/C(=C\c1ccccc1O)c1nc2ccccc2[nH]1)c1ccccc1 | – | – | > 100 µM (inactive) | 23.8 µM (inactive) | > 100 µM (inactive) | – | > 100 µM (inactive) | 74.1 µM (inactive) | 56.6 µM (inactive) | 37.8 µM (inactive) | 41.5 µM (inactive) | 39.7 µM (inactive) | > 100 µM (inactive) | > 100 µM | 12.8 µM (inactive) | 79.6 µM (inactive) | 89.7 µM (inactive) | 63.5 µM (inactive) | – | – |
| CCCn1c(SCC)c2cc3cc4ccccc4cc3cc2c1-c1nc(F)nc(F)n1 | > 100 µM (inactive) | > 100 µM (inactive) | > 100 µM (inactive) | > 100 µM (inactive) | > 100 µM (inactive) | – | > 100 µM (inactive) | > 100 µM (inactive) | > 100 µM (inactive) | > 100 µM (inactive) | > 100 µM (inactive) | > 100 µM (inactive) | > 100 µM (inactive) | > 100 µM | > 100 µM (inactive) | > 100 µM (inactive) | > 100 µM (inactive) | – | – | – |
| C=C(CN(C)C)C(=O)c1ccc(Oc2ccccc2)cc1 | 16.7 µM (inactive) | 13.6 µM (inactive) | 0.356 µM (active) | 2.18 µM (inactive) | 2.54 µM (inactive) | 2.22 µM (inactive) | 6.19 µM (inactive) | 9.2 µM (inactive) | 23.6 µM (inactive) | 16.9 µM (inactive) | – | 9.64 µM (inactive) | 1.26 µM (inactive) | 3.68 µM | 15.9 µM (inactive) | 19.7 µM (inactive) | 2.16 µM (inactive) | 6.87 µM (inactive) | 6.18 µM (inactive) | 8.73 µM (inactive) |
| CS/C(=N/C#N)NCCc1c[nH]c2ccccc12 | > 100 µM (inactive) | > 100 µM (inactive) | 80.7 µM (inactive) | – | – | > 100 µM (inactive) | > 100 µM (inactive) | – | > 100 µM (inactive) | 18 µM (inactive) | 60.1 µM (inactive) | > 100 µM (inactive) | 67 µM (inactive) | > 100 µM | 35.2 µM (inactive) | > 100 µM (inactive) | > 100 µM (inactive) | – | – | – |
| CCOC(=O)C1=NC(c2ccccc2)(c2ccccc2)OC1=C(Cl)Cl | > 100 µM (inactive) | > 100 µM (inactive) | 36 µM (inactive) | 35.4 µM (inactive) | > 100 µM (inactive) | 80.7 µM (inactive) | 63 µM (inactive) | – | – | 35.5 µM (inactive) | – | > 100 µM (inactive) | 32 µM (inactive) | 70.1 µM | > 100 µM (inactive) | > 100 µM (inactive) | 29.2 µM (inactive) | > 100 µM (inactive) | – | – |
| CC(C)(c1ccc(C=O)o1)c1ccc(C(C)(C)c2ccc(C=O)o2)o1 | > 100 µM (inactive) | > 100 µM (inactive) | > 100 µM (inactive) | 69.5 µM (inactive) | > 100 µM (inactive) | – | > 100 µM (inactive) | > 100 µM (inactive) | > 100 µM (inactive) | > 100 µM (inactive) | – | > 100 µM (inactive) | > 100 µM (inactive) | – | – | > 100 µM (inactive) | > 100 µM (inactive) | > 100 µM (inactive) | – | – |
| CN(C)c1ccc(-c2nc(N)nc3c2CCCC3)cc1 | 38.5 µM (inactive) | 51.3 µM (inactive) | 30.2 µM (inactive) | – | 52.1 µM (inactive) | 54.5 µM (inactive) | – | 56.8 µM (inactive) | 50.2 µM (inactive) | 28.4 µM (inactive) | 38.5 µM (inactive) | > 100 µM (inactive) | 29.3 µM (inactive) | – | 42 µM (inactive) | 99.1 µM (inactive) | 38.3 µM (inactive) | – | – | – |
| O=C(CC(CC(=O)Oc1c(Br)cc(Br)cc1C(=O)O)C(=O)Oc1c(Br)cc(Br)cc1C(=O)O)Oc1c(Br)cc(Br)cc1C(=O)O | 71.3 µM (inactive) | 20.7 µM (inactive) | 46.5 µM (inactive) | 16.5 µM (inactive) | 72.6 µM (inactive) | 65 µM (inactive) | 50.2 µM (inactive) | 39.2 µM (inactive) | > 100 µM (inactive) | 44.9 µM (inactive) | 31.8 µM (inactive) | 48.8 µM (inactive) | 41.4 µM (inactive) | 43.8 µM | 26.1 µM (inactive) | 46.5 µM (inactive) | 43.6 µM (inactive) | – | – | – |
| CC(C)[C@@H](COC(C)(C)C)/N=C/N1CCc2c([nH]c3ccccc23)C1 | > 100 µM (inactive) | > 100 µM (inactive) | > 100 µM (inactive) | 21.5 µM (inactive) | – | > 100 µM (inactive) | > 100 µM (inactive) | > 100 µM (inactive) | > 100 µM (inactive) | > 100 µM (inactive) | > 100 µM (inactive) | > 100 µM (inactive) | > 100 µM (inactive) | > 100 µM | > 100 µM (inactive) | > 100 µM (inactive) | > 100 µM (inactive) | – | – | – |
| CC(=O)C1C(c2ccc(N(C)C)cc2)c2cc3c(cc2OC1(C)O)OCO3 (stereo not given) | 28.7 µM (inactive) | – | 32.1 µM (inactive) | 8.32 µM (inactive) | 20.5 µM (inactive) | 59.3 µM (inactive) | 33.7 µM (inactive) | 33.3 µM (inactive) | 29.4 µM (inactive) | 77.6 µM (inactive) | 33.3 µM (inactive) | 75.7 µM (inactive) | 24 µM (inactive) | 41.3 µM | 24.7 µM (inactive) | > 100 µM (inactive) | 39.8 µM (inactive) | 68.9 µM (inactive) | – | – |
| O=S(O)CCCSSc1ccccc1 | 53.2 µM (inactive) | – | 17.5 µM (inactive) | – | 27 µM (inactive) | 41.9 µM (inactive) | 98.4 µM (inactive) | 74.6 µM (inactive) | 30.8 µM (inactive) | 36.1 µM (inactive) | 16.8 µM (inactive) | 96.8 µM (inactive) | 38.1 µM (inactive) | 35.5 µM | 20.8 µM (inactive) | 57.7 µM (inactive) | 37.7 µM (inactive) | > 100 µM (inactive) | – | – |
| N=C(N)SCc1cccc2c(=O)cc(-c3ccccc3)oc12 | 11.4 µM (inactive) | 15.9 µM (inactive) | 2.68 µM (inactive) | 4.03 µM (inactive) | 3.94 µM (inactive) | 7.59 µM (inactive) | 7.24 µM (inactive) | 5.56 µM (inactive) | 7.14 µM (inactive) | 8.75 µM (inactive) | 6.47 µM (inactive) | 23.9 µM (inactive) | 5.35 µM (inactive) | 10.5 µM | 5.41 µM (inactive) | 10.8 µM (inactive) | 4.73 µM (inactive) | – | 13.2 µM (inactive) | 16.2 µM (inactive) |

Reference: ChEMBL document CHEMBL1201862, “PubChem BioAssay data set” (2004)
